Reference: patent EP0326331B1, “Substituted quinolines and cinnolines” (Dow AgroSciences LLC, priority 1988, dated 1989)

Legend:
Format in all cases: in vivo
corn rootworm = assay: Mite/insect screen, CRW; conditions: percent mortality, read-out: CRW RESULTS %; for mortality at 12 ppm: CRW rate 12.00 ppm
In short: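 Percent mortality is evaluated once the standard exposure period ends. Test material is applied as a water dilution of an acetone/alcohol (50:50) stock carrying two sulfonate/nonionic emulsifiers (23 and 13 g per liter).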

[1] = tested on: Cercospora beticola (leaf spot); assay: Test 1 greenhouse foliar spray screen, leaf spot on sugar beet; conditions: Cercospora beticola; Test 1, foliar spray on sugar beet; disease control rating at 400 ppm / 100 ppm
[2] = tested on: Pseudoperonospora cubensis (downy mildew); assay: Test 1 greenhouse foliar spray screen, downy mildew on squash; conditions: for pest or weed control at 400 ppm: Pseudoperonospora cubensis, foliar, Test 1, foliar spray on squash, disease control rating at 400 ppm / 100 ppm, read-out: DOWN MDEW; for activity against downy mildew: summary statement in the description
[3] = tested on: Puccinia recondita tritici (leaf rust); assay: Test 1 greenhouse foliar spray screen, leaf rust on wheat; conditions: Puccinia recondita, foliar, Test 1, foliar spray on wheat; disease control rating at 400 ppm / 100 ppm
[4] = tested on: Erysiphe graminis tritici (powdery mildew); assay: Test 1 greenhouse foliar spray screen, powdery mildew on wheat; conditions: Blumeria graminis, foliar, Test 1, foliar spray on wheat; disease control rating at 400 ppm / 100 ppm; read-out: POWD MDEW
grape leafhopper = assay: Field trials against pest species; conditions: field trial, host grape (European)
Description: (§1) 4-[2-[4-(t-Butyl)phenyl]ethoxy]-8-fluoroquinoline (Example 221) was evaluated in a number of field trials. […]

pea aphid = assay: Field trials against pest species; conditions: field trial
Description: as §1

mites = assay: Field trials against pest species; conditions: field trial, host apples
Description: as §1

apple aphid = assay: Field trials against pest species; conditions: field trial, host apples
Description: as §1

yellow hickory aphid = assay: Field trials against pest species; conditions: field trial, host pecan nut
Description: as §1

apple rust mite = assay: Field trials against pest species; conditions: field trial, host apples
Description: as §1

green cloverworm = assay: Field trials against pest species; conditions: field trial, host alfalfa (Lucerne)
Description: as §1

tarnished plant bug = assay: Field trials against pest species; conditions: field trial, host alfalfa (Lucerne)
Description: as §1

bean aphid = assay: Field trials against pest species; conditions: field trial, host bean, faba broad
Description: as §1

Dawson-hop aphid = assay: Field trials against pest species; conditions: field trial, host hops
Description: as §1

wheat aphid = assay: Field trials against pest species; conditions: field trial, host wheat
Description: as §1

potato leaf hopper = assay: Field trials against pest species; conditions: field trial, host alfalfa (Lucerne)
Description: as §1

thrip = assay: Field trials against pest species; conditions: field trial, host privet
Description: as §1

green peach aphid = assay: Field trials against pest species; conditions: field trial
Description: as §1

white apple leafhopper = assay: Field trials against pest species; conditions: field trial, host apples
Description: as §1

twospotted spider mite = assay: Field trials against pest species; conditions: field trial, host broccoli
Description: as §1

grape thrip = assay: Field trials against pest species; conditions: field trial, host grape (European)
Description: as §1

European red mite = assay: Field trials against pest species; conditions: field trial, host apples
Description: as §1

cotton aphid = assay: Field trials against pest species; conditions: field trial, host cotton
Description: as §1

rosy apple aphid = assay: Field trials against pest species; conditions: field trial, host apples
Description: as §1

greenhouse thrip = assay: Field trials against pest species; conditions: field trial, host azaleas
Description: as §1

Erysiphe sp. = assay: Field tests against plant pathogens; conditions: field test, crop sugar beet
Text: (§2) Selected compounds were field tested against a variety of plant pathogens. […]

[5] = tested on: Venturia inaequalis (apple scab); assay: Test 1 greenhouse foliar spray screen, apple scab on apple seedling; conditions: Venturia inaequalis; Test 1, foliar spray on apple seedling; disease control rating at 400 ppm / 100 ppm; read-out: APPL SCAB
[6] = tested on: melon aphids (Aphis gossypii Glover); assay: Mite/insect screen, MA; conditions: Aphis gossypii, foliar, percent mortality, foliar spray on squash, read-out: MA RESULTS %; for mortality at 200 ppm: rate 200 ppm
In short: (§3)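 Formulation: acetone/alcohol 50:50 + sulfonate/nonionic emulsifiers, water-diluted to indicated concs. Spray both leaf surfaces to runoff, 10 psi; dry 1 h. Armyworm: 2 excised uninfested leaves in Petri dish. Score % mortality after standard exposure.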

[7] = tested on: southern armyworm (Spodopetra eridania Cramer); assay: Mite/insect screen, SAW; conditions: Spodoptera eridania, foliar, percent mortality, foliar spray on squash, read-out: SAW RESULTS %; for mortality at 200 ppm: rate 200 ppm
In short: as §3

[8] = tested on: Botrytis cinerea (gray mold); assay: Test 1 greenhouse foliar spray screen, gray mold on grape berries; conditions: Botrytis cinerea, foliar; Test 1, spray on grape berries; disease control rating at 400 ppm / 100 ppm
[9] = tested on: Pyricularia oryzae (rice blast); assay: whole plant or invertebrate; conditions: for pest or weed control at 400 ppm: Pyricularia oryzae, foliar, read-out: RICE BLAST, Test 1, foliar spray on rice, disease control rating at 400 ppm / 100 ppm
[10] = tested on: Twospotted spider mites (Tetranychus urticae Koch); assay: Mite/insect screen, SM; conditions: for mortality at 200 ppm: rate 200 ppm
In short: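 Compounds dissolved in 50:50 acetone/alcohol containing sulfonate/nonionic emulsifier blends, then diluted with water to the indicated concentrations. Leaves sprayed on both surfaces to runoff at 10 psi and dried one hour. Percent mortality scored after standard exposure periods.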

[11] = tested on: Septoria tritici (leaf blotch); assay: Test 1 greenhouse foliar spray screen, leaf blotch on wheat; conditions: Zymoseptoria tritici; Test 1, foliar spray on wheat; disease control rating at 400 ppm / 100 ppm; read-out: LEAF BLOT
Piricularia oryzae = conditions: field test, crop rice
plant pathogens = assay: Fungicidal efficacy against a broad spectrum of plant pathogens (summary of screen); conditions: summary statement in the description
[12] = tested on: Erysiphe graminis tritici; assay: Field tests against plant pathogens; conditions: field test, crop wheat
Text: as §2

Plasmopara viticola = assay: Field tests against plant pathogens; conditions: field test, crop grape
Text: as §2

Rhynchosporium secalis = assay: Field tests against plant pathogens; conditions: field test, crop barley
Text: as §2

Pyrenophora teres = assay: Field tests against plant pathogens; conditions: field test, crop barley
Text: as §2

[13] = tested on: Pseudocercosporella herpotrichoides; assay: Field tests against plant pathogens; conditions: field test, crop wheat
Text: as §2

Uncinula necator = assay: Field tests against plant pathogens; conditions: field test, crop grape
Text: as §2

Podosphaera leucotricha = assay: Field tests against plant pathogens; conditions: field test, crop apple
Text: as §2

Alternaria brassica = assay: Field tests against plant pathogens; conditions: field test, crop rape
Text: as §2

Sphaerotheca fuliginea = assay: Field tests against plant pathogens; conditions: field test, crop cucumber
Text: as §2

[14] = Tetranychus urticae, foliar, percent mortality, foliar spray on squash, read-out: SM RESULTS %
[15] = summary statement in the description

CC(C)(C)c1ccc(CCOc2ccnc3c(F)cccc23)cc1 [Example 221, 4-[2-[4-(t-butyl)phenyl]ethoxy]-8-fluoroquinoline]
mortality at 12 ppm (corn rootworm): 40% | mortality at 24 ppm (corn rootworm; CRW rate 24.00 ppm): 0% | pest or weed control at 400 ppm [1]: 90 to 100% | pest or weed control at 400 ppm [2]: 90 to 100% | activity against downy mildew [2]: particularly excellent activity | pest or weed control at 400 ppm [3]: 90 to 100% | pest or weed control at 400 ppm [4]: 20 to 89% | pest species against which it showed activity (grape leafhopper): grape leafhopper | pest species against which it showed activity (pea aphid; host alfalfa (Lucerne)): pea aphid | pest species against which it showed activity (pea aphid; host pea, garden (English)): pea aphid | pest species against which it showed activity (mites): mites | pest species against which it showed activity (apple aphid): apple aphid | pest species against which it showed activity (yellow hickory aphid): yellow hickory aphid | pest species against which it showed activity (apple rust mite): apple rust mite | pest species against which it showed activity (green cloverworm): green cloverworm | pest species against which it showed activity (tarnished plant bug): tarnished plant bug | pest species against which it showed activity (bean aphid): bean aphid | pest species against which it showed activity (Dawson-hop aphid): Dawson-hop aphid | pest species against which it showed activity (wheat aphid): wheat aphid | pest species against which it showed activity (potato leaf hopper): potato leaf hopper | pest species against which it showed activity (thrip): thrip | pest species against which it showed activity (green peach aphid; host apples): green peach aphid | pest species against which it showed activity (green peach aphid; host sugar beet): green peach aphid | pest species against which it showed activity (white apple leafhopper): white apple leafhopper | pest species against which it showed activity (twospotted spider mite): twospotted spider mite | pest species against which it showed activity (grape thrip): grape thrip | pest species against which it showed activity (European red mite): European red mite | pest species against which it showed activity (cotton aphid): cotton aphid | pest species against which it showed activity (rosy apple aphid): rosy apple aphid | pest species against which it showed activity (greenhouse thrip): greenhouse thrip | pathogens against which compounds of the invention showed activity (Erysiphe sp.): Erysiphe sp. | pest or weed control at 400 ppm [5]: 20 to 89% | mortality at 200 ppm [6]: 90% | mortality at 400 ppm ([6]; rate 400 ppm): 80% | mortality at 200 ppm [7]: 0% | mortality at 400 ppm ([7]; rate 400 ppm): 0% | pest or weed control at 400 ppm [8]: 0 to 19% | pest or weed control at 400 ppm [9]: 0 to 19% | mortality at 200 ppm [10, 14]: 90% | mortality at 400 ppm ([10]; Tetranychus urticae, foliar, percent mortality, rate 400 ppm, foliar spray on squash, read-out: SM RESULTS %): 90% | activity as miticides [10, 15]: particularly excellent activity | pest or weed control at 400 ppm [11]: 90 to 100%

Cc1ccc(CCOc2ccnc3c(F)cccc23)cc1 [Example 212, 8-fluoro-4-[2-(4-methylphenyl)ethoxy]quinoline]
mortality at 12 ppm (corn rootworm): 0% | pest or weed control at 400 ppm [1]: 0 to 19% | pest or weed control at 400 ppm [2]: 90 to 100% | activity against downy mildew [2]: particularly excellent activity | pathogens against which compounds of the invention showed activity (Piricularia oryzae): Piricularia oryzae | pest or weed control at 400 ppm [3]: 90 to 100% | activity against a broad spectrum of plant pathogens (plant pathogens): particularly excellent activity | pest or weed control at 400 ppm [4]: 90 to 100% | pathogens against which compounds of the invention showed activity [12]: Erysiphe graminis tritici | pathogens against which compounds of the invention showed activity (Plasmopara viticola): Plasmopara viticola | pathogens against which compounds of the invention showed activity (Rhynchosporium secalis): Rhynchosporium secalis | pathogens against which compounds of the invention showed activity (Pyrenophora teres): Pyrenophora teres | pathogens against which compounds of the invention showed activity [13]: Pseudocercosporella herpotrichoides | pathogens against which compounds of the invention showed activity (Uncinula necator): Uncinula necator | pathogens against which compounds of the invention showed activity (Podosphaera leucotricha): Podosphaera leucotricha | pathogens against which compounds of the invention showed activity (Alternaria brassica): Alternaria brassica | pathogens against which compounds of the invention showed activity (Sphaerotheca fuliginea): Sphaerotheca fuliginea | pest or weed control at 400 ppm [5]: 90 to 100% | mortality at 200 ppm [6]: 0% | mortality at 200 ppm [7]: 0% | pest or weed control at 400 ppm [8]: 0 to 19% | pest or weed control at 400 ppm [9]: 90 to 100% | activity against rice blast [9, 15]: particularly excellent activity | mortality at 200 ppm [10, 14]: 0% | pest or weed control at 400 ppm [11]: 90 to 100%
